According to patent US6136798A, “Compounds inhibiting the association of the PDGF receptor and phosphatidylinositol 3-kinase and their use” (Warner-Lambert Company, priority 1999, dated 2000):

Assays:
[1] = molecular target: T1, PDGF-β receptor tyrosine kinase intracellular domain / p85 SH2 fusion protein (PDGF Receptor/PI3-Kinase Association) (Homo sapiens, UniProt P27986); assay: p85 SH2--PDGF-β Receptor Binding Assay; conditions: [35S]p85 C-terminal SH2 fusion protein binding to phosphorylated PDGF-β receptor; 25° C., 20 minutes
T1 construct: The pGEX plasmid expressing the carboxy-terminal SH2 of the p85 subunit of PI3-kinase; made in house; host or cells: p85 SH2-GST: E. coli; PDGF-β receptor intracellular domain: SF9 insect cells, obtained from L. T. Williams (UCSF)
Experimental: The pGEX plasmid expressing the carboxy-terminal SH2 of the p85 subunit of PI3-kinase in a glutathione-s-transferase (GST) fusion protein was used in these studies. Expression and purification of the fusion protein was performed as previously described by Zhu, et al., J. Biol. Chem., 1993;268:1175. To prepare [^35 S]p85 fusion proteins, a 125 mL overnight culture of E. coli expressing the p85-GST fusion protein was added to 1000 mL of LB broth containing 100 μg/mL ampicillin. The cultures were incubated at 37° C. until reaching a density of A600 =1.0. 1 mM of isopropyl-β-D-thiogalactoside was added and 15 minutes later, 10 mCi of trans ^35 S-label was added and cultures incubated for an additional 3 hours at 37° C. The cells were then lysed by sonication and fusion proteins purified over glutathione-agarose beads.
Lysates from SF9 insect cells expressing the PDGF-β receptor tyrosine kinase intracellular domain, obtained from L. T. Williams at the University of California at San Francisco, were incubated with M2 affinity beads and the complexes were washed several times with Tris buffer containing protease inhibitors and sodium orthovanadate. Complexes were centrifuged and resuspended in N-[2-hydroxyethyl]piperazine-N'-[2-ethane sulfonic acid] (HEPES) buffer containing 1 mM adenosine triphosphate (ATP), 10 mM MnCl2, and 5 mM MgCl2 to stimulate phosphorylation of the PDGF receptor.
Binding of [^35 S]p85 SH2 fusion proteins to the phosphorylated PDGF-β receptor tyrosine kinase intracellular domain was assayed in Hepes buffer containing ethylene diamine tetraacetic acid (EDTA), NP-40 and […] of each of the protease inhibitors, PMSF, pepstatin, leupeptin, and aprotinin. Binding assays were performed in 96-well millipore filter plates in a final volume of […] of HEPES buffer containing 135 μL phosphorylated PDGF receptor-beads complex (1 μg receptor/well), 10 μL [^35 S]p85 SH2 fusion protein (30,000 cpm/well), and 5 μL of peptide inhibitor as indicated. Samples were incubated at 25° C. for 20 minutes with continuous rocking. Binding was terminated by filtration through the filter plates using a millipore multiscreen filtration manifold Millipore, Bedford, Mass.). Filter plates were washed four times with 0.15 mL Hepes buffer followed by the addition of 40 μL hi-load scintillant and radioactivity retained on the filters was counted in a Wallac 1450 Microbeta counter (Wallac Inc, Gaithersburg, Md.). Total binding was defined as [^35 S]p85 fusion protein bound to the PDGF-β receptor-bead complex retained on the filter plate after washing. Nonspecific binding was defined as radioactivity retained on the filter plates in the presence of excess unlabeled p85 fusion protein. Specific binding was defined as total binding minus nonspecific binding. IC50 values were calculated by weighted nonlinear regression curve fitting.

[2] = molecular target: T2, PDGF Receptor/PI 3-Kinase association in rat aortic smooth muscle cells (Rattus norvegicus, UniProt Q63787); assay: PDGF Receptor/PI 3-Kinase Cell Association Assay; assay type: cell-based; conditions: RASMC, PDGF-BB 30 ng/mL 5 minutes; for inhibition at 25 µM: printed in the Cellular IC50 column, read-out: Inhibition of PDGF Receptor/PI3-Kinase Association (Cellular)
T2 construct: endogenous in cells; host or cells: rat aortic smooth muscle cells (RASMC), primary, passages 5 to 20
Experimental: Smooth muscle cells were isolated from the thoracic aorta of rats (RASMC) and explanted according to the method of Ross, J. Biol. Chem., 1971;30:172-86. Cells were grown in Dulbecco's modified Eagle's medium (DMEM, Gibco) containing 10% fetal calf serum (FBS, Hyclone, Logan, Utah), 1% glutamine (Gibco) and 1% penicillin/streptomycin (Gibco). Cells were identified as smooth muscle cells by their "hill and valley" growth pattern and by fluorescent staining with a monoclonal antibody specific for SMC […] (Sigma). RASMC were used between passages 5 and 20 for all experiments. Test compounds were prepared in dimethylsulfoxide (DMSO) in order to achieve consistency in the vehicle and to ensure compound solubility. Appropriate DMSO controls were simultaneously evaluated with the test compounds.
Rat aortic smooth muscle cells were grown to confluency in 100 mm dishes. Growth medium was removed and replaced with serum-free medium and cells were incubated at 37° C. for an additional 24 hours. Test compounds were then added directly to the medium and cells incubated for an additional 24 hours. After 24 hours PDGF-BB was added at a final concentration of 30 ng/mL for 5 minutes at 37° C. to stimulated autophosphorylation of the PDGF receptor and association of PI 3-kinase to the phosphorylated receptors. […] Following incubation with ^125 I-protein-A, p85 protein levels were detected by phosphorimage analysis and protein bands quantitated via densitometry. […]

T1 sequence (P27986 624-718 limits assumed): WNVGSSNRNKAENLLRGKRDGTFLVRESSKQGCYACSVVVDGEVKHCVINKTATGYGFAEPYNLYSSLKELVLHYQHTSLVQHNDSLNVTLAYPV
T2 sequence (Q63787 whole entry): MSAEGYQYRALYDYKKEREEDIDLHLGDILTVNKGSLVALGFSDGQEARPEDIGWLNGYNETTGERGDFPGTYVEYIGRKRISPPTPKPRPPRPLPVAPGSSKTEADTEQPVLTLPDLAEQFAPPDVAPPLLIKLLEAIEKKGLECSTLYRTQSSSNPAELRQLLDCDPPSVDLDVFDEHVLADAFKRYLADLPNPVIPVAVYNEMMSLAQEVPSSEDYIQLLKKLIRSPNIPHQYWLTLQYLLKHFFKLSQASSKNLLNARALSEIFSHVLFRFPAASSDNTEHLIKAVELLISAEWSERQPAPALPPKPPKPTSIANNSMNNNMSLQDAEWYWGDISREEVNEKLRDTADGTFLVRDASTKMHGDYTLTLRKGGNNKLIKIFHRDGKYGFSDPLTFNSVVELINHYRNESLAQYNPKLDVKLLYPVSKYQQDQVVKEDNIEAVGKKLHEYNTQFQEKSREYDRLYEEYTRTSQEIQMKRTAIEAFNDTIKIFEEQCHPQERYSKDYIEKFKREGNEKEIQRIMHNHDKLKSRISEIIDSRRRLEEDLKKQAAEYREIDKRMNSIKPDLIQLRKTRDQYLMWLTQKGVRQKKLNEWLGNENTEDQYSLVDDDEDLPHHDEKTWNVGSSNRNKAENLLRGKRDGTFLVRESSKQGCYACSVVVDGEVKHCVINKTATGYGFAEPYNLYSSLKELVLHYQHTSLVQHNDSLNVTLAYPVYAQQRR

Row | SMILES | IC50 [1] [µM] | inhibition at 25 µM [2] [%] | IC50 ([2]; 24 h compound, p85 immunoblot, read-out: Cellular IC50) [µM]
1 | CCCCCN(CCCCC)C(=O)[C@H](C)NC(=O)[C@@H](NC(=O)[C@H](Cc1ccc(OP(=O)(O)O)cc1)NC(C)=O)C(C)C [Example 8, [1S-[1R*[R*(R*)]]]-Phosphoric acid mono-(4-{2-acetylamino-2-[1-(1-dipentylcarbamoyl-ethyl-carbamoyl)-2-methyl-propylcarbamoyl]-ethyl}-phenyl) ester] | 0.22 | – | –
2 | CCCCCCCCN(CCCCCCCC)C(=O)[C@H](C)NC(=O)[C@@H](NC(=O)[C@H](Cc1ccc(OP(=O)(O)O)cc1)NC(C)=O)C(C)C [Example 10, [1S-[1R*[R*(R*)]]]-Phosphoric acid mono-(4-{2-acetylamino-2-[1-(1-dioctylcarbamoyl-ethyl-carbamoyl)-2-methyl-propylcarbamoyl]-ethyl}-phenyl) ester] | 3.5 ± 0.5 | – | –
3 | CCCCCN(CCCCC)C(=O)[C@H](C)NC(=O)[C@@H](NC(=O)[C@H](Cc1ccc(C(F)(F)P(=O)(O)O)cc1)NC(C)=O)C(C)C [Example 2, [1S-[1R*[R*(R*)]]]-[(4-{2-Acetylamino-2-[1-(1-dipentylcarbamoyl-ethylcarbamoyl)-2-methyl-propylcarbamoyl]-ethyl}-phenyl)-difluoro-methyl]-phosphonic acid] | 0.29 ± 0.08 | 30 | –
4 | CCCCCCN(CCCCCC)C(=O)[C@H](C)NC(=O)[C@@H](NC(=O)[C@H](Cc1ccc(C(F)(F)P(=O)(O)O)cc1)NC(C)=O)C(C)C [Example 1, [1S-[1R*[R*(R*)]]]-[(4-{2-Acetylamino-2-[1-(1-dihexylcarbamoyl-ethylcarbamoyl)-2-methyl-propylcarbamoyl]-ethyl}-phenyl)-difluoro-methyl]-phosphonic acid] | 0.45 ± 0.04 | – | –
5 | CCCCCCN(CCCCCC)C(=O)[C@H](C)NC(=O)[C@@H](NC(=O)[C@H](Cc1ccc(OP(=O)(O)O)cc1)NC(C)=O)C(C)C [Example 4, [1S-[1R*[R*(R*)]]]-Phosphoric acid mono-(4-{2-acetylamino-2-[1-(1-dihexylcarbamoyl-ethylcarbamoyl)-2-methyl-propylcarbamoyl]-ethyl}-phenyl) ester] | 0.08 ± 0.01 | 27 | –
6 | CCCCN(CCCC)C(=O)[C@H](C)NC(=O)[C@@H](NC(=O)[C@H](Cc1ccc(OP(=O)(O)O)cc1)NC(C)=O)C(C)C [Example 6, [1S-[1R*[R*(R*)]]]-Phosphoric acid mono-(4-{2-acetylamino-2-[1-(1-dibutylcarbamoyl-ethyl-carbamoyl)-2-methyl-propylcarbamoyl]-ethyl}-phenyl) ester] | 1.6 ± 0.32 | – | 37.5
7 | CCCCCCCCN(CCCCCCCC)C(=O)[C@H](C)NC(=O)[C@@H](NC(=O)[C@H](Cc1ccc(C(F)(F)P(=O)(O)O)cc1)NC(C)=O)C(C)C [Example 3, [1S-[1R*[R*(R*)]]]-[(4-{2-Acetylamino-2-[1-(1-dioctylcarbamoyl-ethylcarbamoyl)-2-methyl-propylcarbamoyl]-ethyl}-phenyl)-difluoro-methyl]-phosphonic acid] | 12.2 ± 0.9 | – | –
